Test results from a polymer gas permeability compilation.

Structure (SMILES) | CH4 permeability [Barrer] | CO2 permeability [Barrer] | O2 permeability [Barrer] | N2 permeability [Barrer] | H2 permeability [Barrer]
*O[Si](C)(C)CCCCCC[Si](*)(C)C (repeat unit) | 395 | 1310 | 265 |  | 
*c1c(C)c2c(c(N3C(=O)c4ccc(C(c5ccc6c(c5)C(=O)N(*)C6=O)(C(F)(F)F)C(F)(F)F)cc4C3=O)c1C)C(C)(C)CC2 (repeat unit) | 50.5 | 692 | 198 | 58.6 | 
*C(C)=C(*)CCCCCC (repeat unit) | 64 | 230 | 60 | 23 | 140
*c1c(C)cc(-c2cc(C)c(-n3c(=O)c4cc5oc6cc7c(cc6oc5cc4c3=O)C3(CC(C)(C)c4cc5oc6cc8c(=O)n(*)c(=O)c8cc6oc5cc43)CC7(C)C)c3ccccc23)c2ccccc12 (repeat unit) | 215 | 2980 | 432 | 130 | 1310
*Oc1ccc(C(C)(C)c2ccc(OC(=O)c3cccc(C(*)=O)c3)cc2)cc1 (repeat unit) | 0.269 | 5.6 | 1.45 | 0.272 | 
*c1ccc(Oc2ccc(N3C(=O)c4ccc(Oc5ccc(Oc6ccc7c(c6)C(=O)N(*)C7=O)cc5)cc4C3=O)cc2)cc1 (repeat unit) |  |  | 0.216 | 0.034 | 4
*c1cccc(-c2nc3cc(-c4ccc5[nH]c(*)nc5c4)ccc3[nH]2)c1 (repeat unit) | 0.0018 | 0.16 | 0.015 | 0.0048 | 0.615
*c1ccc(Oc2ccc(C(c3ccc(Oc4ccc(N5C(=O)c6ccc(-c7ccc8c(c7)C(=O)N(*)C8=O)cc6C5=O)cc4C(F)(F)F)cc3)(C(F)(F)F)C(F)(F)F)cc2)c(C(F)(F)F)c1 (repeat unit) | 0.279 | 9.15 | 3.11 | 0.563 | 30.6
*C(=O)c1ccc(C2(c3ccc(C(=O)c4ccc(Oc5ccc(C(=O)c6ccc(Oc7ccc(*)cc7)cc6)cc5)cc4)cc3)OC(=O)c3ccccc32)cc1 (repeat unit) | 0.1 | 3.1 | 0.68 | 0.0986 | 9.2
*c1ccc(-c2ccc(N3C(=O)c4ccc(-c5ccc6c(c5)C(=O)N(*)C6=O)cc4C3=O)c(O)c2)cc1O (repeat unit) | 0.00041 | 0.0313 | 0.0096 | 0.001 | 
*c1ccc(Oc2cc3c(cc2C)OC2(CC3(C)C)CC(C)(C)c3cc(Oc4ccc(*)cc4)c(C)cc3O2)cc1 (repeat unit) | 0.77 | 29.3 | 6.17 | 1.33 | 
*=CC1CC(C=*)C2C(=O)N(C34CC5CC(CC(C5)C3)C4)C(=O)C12 (repeat unit) | 0.58 | 8.39 | 1.59 | 0.5 | 12.8
*Cc1ccc(C*)c(C#N)c1 (repeat unit) |  | 0.301 | 0.0904 |  | 1.78
*CC(*)OCC1CCCCC1 (repeat unit) |  | 5.89 | 1.55 | 0.4 | 
*Oc1ccc(C(c2ccc(Oc3c(F)c(F)c(COC(C4CCCC(C(OCc5c(F)c(F)c(*)c(F)c5F)(C(F)(F)F)C(F)(F)F)C4)(C(F)(F)F)C(F)(F)F)c(F)c3F)cc2)(C(F)(F)F)C(F)(F)F)cc1 (repeat unit) | 0.55 | 12 | 3.8 | 0.9 | 28
*CC(*)(C)C(=O)OC(C)(C)C (repeat unit) | 0.719 | 15.1 | 4.53 | 0.768 | 62.2
*c1ccc(Cc2ccc(N3C(=O)c4ccc(-c5ccc6c(c5)C(=O)N(*)C6=O)cc4C3=O)c(Cl)c2)cc1Cl (repeat unit) | 0.0164 | 0.978 | 0.26 | 0.0307 | 
*CC(*)O (repeat unit) |  | 1.2e-06 | 7e-07 |  | 
*CC(*)(C)C(=O)OCCOCCOCC (repeat unit) | 11.4 | 133 | 11.4 | 3.6 | 
*CC(C)C(=O)OCCOC(=O)C(C)C* (repeat unit) | 4.8 | 95 | 4.7 | 1.6 | 15
*c1cc2c(cc1O)C1(CC2(C)C)CC(C)(C)c2cc(N3C(=O)C4C5C=CC(C6C(=O)N(*)C(=O)C56)C4C3=O)c(O)cc21 (repeat unit) | 4.6 | 130 | 23 | 5.5 | 206
*C(C)=C(*)CCC(C)C (repeat unit) | 112 | 390 | 130 | 51 | 370

Structure (SMILES) | CH4 permeability [Barrer] | CO2 permeability [Barrer] | O2 permeability [Barrer] | N2 permeability [Barrer] | H2 permeability [Barrer]
*Oc1ccc(C(C)(C)c2cccc(C(C)(C)c3ccc(Oc4ccc(S(=O)(=O)c5ccc(*)cc5)cc4)cc3)c2)cc1 (repeat unit) | 0.111 | 2.8 | 0.69 | 0.11 | 10.6
*c1ccc(Oc2ccc(N3C(=O)c4ccc(Sc5ccc6c(c5)C(=O)N(*)C6=O)cc4C3=O)cc2)cc1 (repeat unit) |  |  | 0.198 | 0.021 | 4.68
*c1c(C)cc(-c2cc(C)c(N3C(=O)c4cc5c(cc4C3=O)C3(C)CCC5(C)c4cc5c(cc43)C(=O)N(*)C5=O)c3ccccc23)c2ccccc12 (repeat unit) | 230 | 4300 | 901 | 208 | 3420
*Oc1ccc(C(=O)c2ccc(Oc3ccc(C(c4ccc(*)cc4)(C(F)(F)F)C(F)(F)F)cc3)cc2)c2ccccc12 (repeat unit) | 0.21 | 6.04 | 1.85 | 0.325 | 
*c1c(C)cc(C)c(N2C(=O)c3ccc(S(=O)(=O)c4ccc5c(c4)C(=O)N(*)C5=O)cc3C2=O)c1C (repeat unit) |  |  | 5.69 | 1.02 | 47.1
*Oc1c(Br)cc(C(c2cc(Br)c(OC(*)=O)c(Br)c2)(C(F)(F)F)C(F)(F)F)cc1Br (repeat unit) | 0.89 | 32 | 9.7 | 1.8 | 10.6
*Oc1ccc(-c2ccc(Oc3ccc(S(=O)(=O)c4ccc(*)cc4)cc3)cc2)cc1 (repeat unit) | 0.25 | 5.6 | 1.3 | 0.24 | 28
*c1ccc(Sc2ccc(N3C(=O)c4ccc(-c5ccc6c(c5)C(=O)N(*)C6=O)cc4C3=O)cc2)cc1 (repeat unit) | 0.0164 | 0.774 |  | 0.022 | 
*c1c(C)cc2c(c1C)C1c3ccccc3C2c2cc(C)c(N3C(=O)C4C5C=CC(C6C(=O)N(*)C(=O)C56)C4C3=O)c(C)c21 (repeat unit) | 69 | 1310 | 308 | 71 | 1600
*Oc1c(C)cc(C(C)(C)c2cc(C)c(OC(=O)c3cc(C(*)=O)cc(C(C)(C)C)c3)c(Br)c2)cc1Br (repeat unit) | 1.06 | 22.7 | 6.27 | 1.06 | 
*Cc1ccc(C*)c(Br)c1 (repeat unit) |  | 0.036 |  |  | 0.452
*c1cc2c(cc1C)-c1cc(C)c(N3C(=O)c4cc5c(cc4C3=O)S(=O)(=O)c3cc4c(cc3S5(=O)=O)C(=O)N(*)C4=O)cc1S2(=O)=O (repeat unit) | 0.59 | 24 |  | 0.7 | 
*c1c(C)c(C)c(N2C(=O)c3ccc(Oc4cc(C)ccc4Oc4ccc5c(c4)C(=O)N(*)C5=O)cc3C2=O)c(C)c1C (repeat unit) | 0.47 | 20 | 3.5 | 0.59 | 41
*c1ccc(Oc2cccc(-n3c(=O)c4cc5c(=O)n(*)c(=O)c5cc4c3=O)c2)cc1 (repeat unit) | 0.0258 | 1.15 | 0.31 | 0.0454 | 5.92
*NCCCCCC(*)=O (repeat unit) |  | 0.165 | 0.036 |  | 
*c1c(C)cc(Cc2cc(C)c(N3C(=O)c4ccc(C(c5ccc6c(c5)C(=O)N(*)C6=O)(C(F)(F)F)C(F)(F)F)cc4C3=O)c(C)c2)cc1C (repeat unit) | 1.45 | 43.9 | 10.3 | 2.13 | 
*C[Si](*)(C)C (repeat unit) | 130 | 549 | 99 | 38 | 
*C(=O)c1ccc([Si](C)(C)c2ccc(C(*)=O)cc2)cc1 (repeat unit) | 1.39 | 22.2 | 5.54 | 1.37 | 27.1
*=CC1CC(C=*)C2C1C([Si](O[Si](C)(C)C)(O[Si](C)(C)C)O[Si](C)(C)C)C2[Si](O[Si](C)(C)C)(O[Si](C)(C)C)O[Si](C)(C)C (repeat unit) | 300 | 1160 | 295 | 100 | 690
*c1ccc(Oc2ccc(C(C)(C)c3ccc(Oc4ccc(N5C(=O)c6ccc(Oc7ccc8c(c7)C(=O)N(*)C8=O)cc6C5=O)cc4)cc3)cc2)cc1 (repeat unit) |  | 2.7 | 0.49 | 0.07 | 8
*Oc1cc2c(cc1O*)C1(CC2(C)C)CC(C)(C)c2cc3c(cc21)Oc1c(C#N)c(*)c(*)c(C(=O)O)c1O3 (repeat unit) |  | 2540 | 534 | 162 | 1540
